# Assay results from patent US11261232B2, “TNFRSF14 / HVEM proteins and methods of use thereof” (MEMORIAL SLOAN KETTERING CANCER CENTER, priority 2015, dated 2022).
# Columns and labels:
# [1] = system: MYC/BCL2 double positive murine lymphoma cells; test: In vivo treatment of engrafted myc-bcl2 murine lymphomas by intratumoral injection; set-up: species or system J:Nu nude mice
# Method: FIG. 7A-H. The solHVEM (either Leu39-Va1202 or Pro37-Va1202) protein restores tumor suppressive effects of HVEM.
# FIG. 20. sTNFRSF14 inhibits tumor growth in vivo. Xenograft myc-bc12 lymphomas were grown in the flanks of mice. When the tumors reached a volume of approximately 0.5 cm^3 mice were treated every other day by intra-tumoral injection in the flanks with 20 ug/ml of sTNFRSF14diluted in PBS. The control (vehicle) animals were treated with PBS. Tumors were weighed and volumes were measured twice weekly.
# FIG. 21. sTNFRSF14 decreases lymphoma growth in a xenograft model. 5 million myc-Bcl2 cells were mixed with Matrigel and injected subcutaneously into the flanks of mice J:Nu Nude (Foxn1 nu/Foxn1 nu) mice. Animals were sacrificed according to IUCAC protocols. Upon sacrifice tumors were weighed and measured.
# FIG. 22. Exogenous administration of sTNFRSF14 suppresses mouse lymphoma xenografts. Animals were sacrificed on day day 11 and the xenografted tumors were excised from the flanks of the mice. The tumors from each flank—treated (sTNFRSF14) and untreated (vehicle) were weighed. Bars represent the average of n=4 mice.
# FIG. 24. Immunohistochemical analysis of xenograft tumors. Pathological analysis of sTNFRSF14 treated and vehicle treated mouse lymphomas. Tumors were excised from the flanks of the animals and fixed in 4% paraformaldehyde overnight. The tumors were sectioned and stained via IHC for particular tumor markers. Representative staining for HE, TUNEL, and Ki67 is shown.
# Building on these findings, experiments were performed to test whether solHVEM would have any single agent activity against lymphomas. First, the expression of the BTLA receptor was characterized across a panel of human and mouse lymphoma (mostly DLBCL) cell lines. […] Next, experiments were performed to test if solHVEM had any effect on established BTLA^hi lymphomas in vivo. Briefly, aggressive MYC/BCL2 double positive murine lymphoma cells that express BTLA (BTLA^hi) were transplanted into the flanks of J:Nu nude mice and mice were treated with 20 μg of solHVEM or vehicle (PBS) every three days for a total four times once the engrafted tumors reached a volume of ˜50 mm3. […] Similar results were obtained both in vitro and in vivo with a different soluble HVEM molecule consisting of the extracellular region from amino acids Pro37 to Va1202 (SEQ ID NO. 6).
# Transplant and treatment studies were generated as previously described (Schatz et al., 2011). In summary, subcutaneous injection of one million myc-bcl2 mouse lymphoma cells combined with Matrigel (BD) in the right and left flanks of mice J:Nu Nude (Foxn1 nu/Foxn1 nu). Once tumors reached 75-mm3 mice were treated every three days by intra tumor injection with 20 m of sHVEM diluted in PBS (right flank) or with vehicle control (left flank). Tumor sizes were measured and recorded every three days. Tumors were weighed after the animals were sacrificed and tumors excised.
# To study the effects of the sTNFRSF14 polypeptide in vivo, five (5) million myc-bc12 cells were injected into both the right and left flanks of nude mice. Upon formation of palpable tumors treatment was commenced. The treatment comprise injecting mice intra-tumorally with either 20 ug of sTNFRSF14 on the right flank or vehicle on the left flank.
# [2] = system: BCR signaling pathway in BCL1 mouse lymphoma cells; test: BTK phosphorylation by flow cytometry in IgM-stimulated BCL1 cells; type: cell-based; settings: solHVEM 10 μg/ml
# Method: FIG. 4A-E. HVEM blocks BCR signaling in a cell autonomous and BTLA dependent manner. FIG. 4A and FIG. 4B, Quantification of FACS analysis of phosphorylated BTK (pBTK) expression in BCL1 cells after stimulation with anti-IgM in the presence of solHVEM (10 μg/m1) or Ibrutinib (10 nM) without (FIG. 4A) or with (FIG. 4B) the knockdown of BTLA (shBTLA); FIG. 4C, FACS analysis of BTLA expression on purified primary human FL B cells distinguishes samples with high (BTLA^hi) and low (BTLAlo) surface BTLA expression); FIG. 4D, FACS analysis for the indicated signaling molecules in human primary FL B cells that were BTLA^hi or BTLAlo and stimulated with anti-human IgG (3 min; 10 μg/ml and H2O2 1 mM) in the presence or absence of the soluble HVEM ectodomain (solHVEM; 10 μg/ml) (right); FIG. 4E, Percentage of pSyk inhibition was calculated by comparing the ratio of MFI of pSyk+/−solHVEM and was correlated to BTLA ratio of MFI (r=0.697, p=0.03, Purified FL B cells, n=10, grade 1 and grade 2).
# Loss of HVEM and BTLA leads to BCR activation in murine lymphomas (FIGS. 2G and 3F). […] Briefly, the BCR signaling pathway in BCL1 mouse lymphoma cells was stimulated with IgM in the presence or absence of solHVEM (10 μg/ml) or the pharmacological BTK inhibitor ibrutinib (10 nM) and BTK phosphorylation was measured as an indicator of BCR pathway activation by flow cytometry. […]
# [3] = 20 μg intratumoral every three days
# [4] = compared to vehicle-treated tumors
Molecule,"ERK inhibition in tumors by immunoblot [1, 3]","apoptosis by TUNEL stain in tumors [1, 3]","tumor growth ([1]; 20 μg intratumoral every three days, four times, n=4, p<0.01)",BTK phosphorylation and activation ([2]; BCL1 cells stimulated with IgM),BTK inhibition with knockdown of BTLA ([2]; BCL1 cells with shBTLA),"tumor growth ([1]; 20 ug intra-tumoral, right flank, vehicle left flank)","tumor weight ([1]; 11 days after treatment initiation, average, 20 ug intra-tumoral) [grams]","TUNEL staining in tumors [1, 4]","levels of phosphorylated ERK in tumors [1, 4]","proliferation marker Ki67 in tumors [1, 4]"
solHVEM: Leu39-Val202 soluble HVEM ectodomain polypeptide of SEQ ID NO. 8,ERK inhibition,abundant apoptosis,prevented any further tumor growth,blocked BTK phosphorylation and activation,knockdown of BTLA prevented BTK inhibition,,,,,
"sTNFRSF14: Pro37-Val202 soluble HVEM ectodomain polypeptide of SEQ ID NO. 6 (protein, listed as Homo sapiens) PALPSCKEDEYPVGSECCPKCSPGYRVKEACGELTGTVCEPCPPGTYIAHLNGLSKCLQCQMCDPAMGLRASRNCSRTENAVCGCSPGHFCIVQDGDHCAACRAYATSSPGQRVQKGGTESQDTLCQNCPPGTFSPNGTLEECQHQTKCSWLVTKAGAGTSSSHWV",,,,,,near complete growth delay,0.75,higher levels,reduced levels,decrease
